PubChem BioAssay (NCI)
Several values for one entry are separate records, joined by “and”; a condition that tells them apart may be missing. Equal entries are not always repeated.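 Cultured in 96-well plates, cells were exposed to test compound for 48 hours across five concentrations. Abbreviation: GI50, concentration required for 50% inhibition of growth. TGI denotes the concentration required for complete inhibition of growth.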

Experiments:
Test in all cases: NCI anticancer screen, dose series, 48 h
[1] = tested on: OVCAR-4 ovarian
[2] = tested on: ACHN renal
[3] = tested on: HT29 colon
[4] = tested on: IGROV1 ovarian
[5] = tested on: SNB-19 CNS
[6] = tested on: A498 renal
[7] = tested on: TK-10 renal
[8] = tested on: UO-31 renal
[9] = tested on: SF-539 CNS
[10] = tested on: MDA-MB-231 breast

Compound | TGI [1] | TGI [2] | TGI [3] | TGI [4] | TGI [5] | TGI [6] | TGI [7] | TGI [8] | TGI [9] | GI50 [1] | GI50 [2] | GI50 [4] | GI50 [5] | GI50 [6] | GI50 [7] | GI50 [8] | GI50 [10] | TGI [10] | GI50 [3] | GI50 [9]
O=C(Nc1ccccc1)OCc1nc2c([nH]1)C(=O)C=CC2=O | 28 µM | 25.2 µM | 58.5 µM | 30.7 µM | 28.5 µM | 30.1 µM | 27 µM | 30.5 µM | > 100 µM |  |  |  |  |  |  |  |  |  |  | 
CN(/C(=N\O)c1ccccc1)c1ccccc1 | > 100 µM |  | 87.5 µM |  | 90.3 µM |  |  | 69.3 µM | 49.6 µM |  |  |  |  |  |  |  |  |  |  | 
O/N=C1/C(=C/c2ccccc2)CCCC1C(NO)c1ccccc1 (stereo not given) | > 100 µM | > 100 µM | > 100 µM | > 100 µM | > 100 µM | > 100 µM | > 100 µM | > 100 µM | > 100 µM |  |  |  |  |  |  |  |  |  |  | 
O=C1C(Nc2cccc(O)c2)=C(Sc2ccc(Cl)cc2)C(=O)N1Cc1ccccc1 | > 100 µM | 27 µM |  | > 100 µM | > 100 µM | 25.6 µM | 31.8 µM | > 100 µM |  | 14.1 µM | 9.33 µM | 26.8 µM | 25.1 µM | 10.3 µM | 16.7 µM | 7.93 µM |  |  |  | 
COC(=O)C1CCC(N2C(=O)CCC2C(=O)OC)=N1 (stereo not given) | > 100 µM | > 100 µM | > 100 µM | > 100 µM | > 100 µM | > 100 µM | > 100 µM | > 100 µM |  |  |  |  |  |  |  |  |  |  |  | 
CN(C(=O)C1CC1)C1C2CN3CCC(O2)C13 (stereo not given) | > 100 µM | > 100 µM | > 100 µM | > 100 µM | > 100 µM | > 100 µM | > 100 µM | > 100 µM | > 100 µM |  |  |  |  |  |  |  |  |  |  | 
COc1cc(C(=C2SCCS2)c2nccc3cc(OC)c(OC)cc23)c([N+](=O)[O-])cc1OC |  | > 100 µM | > 100 µM | > 100 µM | > 100 µM | > 100 µM | > 100 µM | > 100 µM | > 100 µM |  |  |  |  |  |  |  |  |  |  | 
NCCCn1c2c(c3ccc([N+](=O)[O-])cc3c1=O)C(=O)c1cc(Cl)ccc1-2 |  | 0.124 µM | 0.225 µM |  | 0.227 µM | 0.596 µM | 0.811 µM | 0.122 µM | 0.0613 µM |  | < 0.01 µM |  | < 0.01 µM | 0.0274 µM | 0.379 µM | < 0.01 µM | 0.218 µM | 0.64 µM | < 0.01 µM | < 0.01 µM
CCCCCCCCCCCCCCCCCCOCC1(COP(=O)([O-])OCC[N+](C)(C)C)CCCO1 (stereo not given) | 8.38 µM | 19.4 µM | 12.4 µM | 6.63 µM | 11.1 µM | 11.8 µM | 3.54 µM | 21.9 µM | 29.4 µM |  |  |  |  |  |  |  |  |  |  | 
Cn1c(=O)c2[nH]cnc2n(CC(=O)O)c1=O |  | > 100 µM | > 100 µM | > 100 µM | > 100 µM | > 100 µM | > 100 µM | > 100 µM | > 100 µM |  |  |  |  |  |  |  |  |  |  | 
CCOC(CN(C)C(=O)OCC(Cl)(Cl)Cl)OCC | > 100 µM | > 100 µM | > 100 µM | > 100 µM | > 100 µM |  | > 100 µM | > 100 µM | > 100 µM |  |  |  |  |  |  |  |  | > 100 µM |  | 
NC(=O)C12CCC1C1CCCCC12N1CCOCC1 (stereo not given) | > 100 µM | > 100 µM | > 100 µM | > 100 µM | > 100 µM | > 100 µM | > 100 µM | > 100 µM | > 100 µM |  |  |  |  |  |  |  |  |  |  | 
C[n+]1ccc2[nH]c3ccccc3c2c1 | > 100 µM | > 100 µM | > 100 µM | > 100 µM | > 100 µM | > 100 µM | > 100 µM | > 100 µM | > 100 µM |  |  |  |  |  |  |  |  |  |  | 
COC(=O)NN=C1C(C)(C)C(=NNC(=O)OC)C1(C)C | > 100 µM | > 100 µM | > 53.6 µM | > 100 µM | > 100 µM | > 100 µM | > 100 µM | > 100 µM | > 100 µM |  |  |  |  |  |  |  |  |  |  | 
CO[C@@]12[C@H](COC(N)=O)C3=C(C(=O)C(C)=C(N)C3=O)N1C[C@@H]1N[C@@H]12 | 10.5 µM and 10.1 µM and 42.8 µM | 4.88 µM and 1.76 µM | 12.3 µM and 13 µM and 23.7 µM | 8.88 µM and 8.21 µM and 5.97 µM |  | 2.68 µM and 2.64 µM |  | 6.88 µM and 0.959 µM |  | 4.65 µM |  | 3.24 µM and 1.5 µM |  | 1.05 µM | 2.63 µM |  | 17.5 µM and 9.42 µM | 16.8 µM and 25 µM and 56.3 µM | 1.45 µM and 0.542 µM | 
C=CC1=C(C)C(Cc2[nH]c(/C=c3\[nH]/c(=C/C4=NC(=O)C(C)/C4=C\C)c(C)c3CCC(=O)O)c(CCC(=O)OC)c2C)NC1=O (stereo not given) |  | 77.2 µM |  | 42.4 µM |  | > 100 µM | > 100 µM | 36.1 µM | 54.4 µM |  | 26.3 µM | 18.8 µM |  | > 100 µM | 46.4 µM | 18.9 µM | 25.4 µM | 58.9 µM |  | 25.1 µM
O=C(Cc1nc2ccccc2s1)C(=O)Nc1ccc(Cl)cc1Cl | > 100 µM | > 100 µM | > 100 µM | > 100 µM | > 100 µM |  | > 100 µM | > 100 µM | > 100 µM |  |  |  |  |  |  |  |  |  |  | 
CCC[CH2][Sn]1([CH2]CCC)[O]CC([CH2][Sn]([c]2ccccc2)([c]2ccccc2)[c]2ccccc2)[O]1 (stereo not given) |  | 32.5 µM |  | 29.2 µM | 28.6 µM |  | 27 µM | 28.7 µM | 28.3 µM |  | 17 µM | 15.2 µM | 15.1 µM |  | 13.8 µM | 15.3 µM |  |  |  | 15 µM
CN(C)NC(=S)NC12CC3CC(CC(C3)C1)C2 | > 100 µM | > 100 µM | > 100 µM | > 100 µM | > 100 µM | > 100 µM | > 100 µM | > 100 µM | > 100 µM |  |  |  |  |  |  |  |  |  |  | 
CC(=O)[CH-]C(=O)c1ccccc1.CC(=O)[CH-]C(=O)c1ccccc1.CC12CC3(C)CC(C)(C1)CC([O-])(C2)C3.CC[O-].[Ti+4] | 53.3 µM | > 100 µM | > 100 µM | > 100 µM | 45.2 µM | 44.5 µM | 62.1 µM | 57.5 µM | 38.5 µM | 17.9 µM | 38.7 µM | 40.9 µM | 20.9 µM | 21.3 µM | 26.7 µM | 16 µM |  |  | 27 µM | 17.5 µM
